The results in this text go back to patent publication US20230183310A1, “Polypeptide Compounds and Use Thereof in the Prevention or Treatment of Diabetes or Diabetic Complications” (Shenzhen Turier Biotech Co., Ltd., priority 2020, published 2023).

*1 amine or outer side, *2 acyl side, *3 side chain or, on linkers, in order; H or OH if unused. Primed or numbered codes have the meaning given here. Where no end group is shown, it is not given here. Side-chain parts run from the residue outwards. [ ]: non-standard residue; d: D form. The star is where a group is joined. C20 diacid = O=C(O)CCCCCCCCCCCCCCCCCCC(=O)*; γGlu = O=C(O)[C@H](CCC(=O)[*:2])N[*:1]; PEG2′ = not defined here; Aib = CC(C)(N)C(=O)O

The test system of assay [1] is db/db diabetic mice. Description: Treatment of 12-week-old db/db diabetic mice: blood glucose, OGTT, ITT, ALT/AST, diabetic nephropathy indices. It counts as in vivo. The settings on record: for weekly blood glucose (hypoglycemic effect): FIG. 4A, blood glucose at normal levels at week 1; for weekly blood glucose (hypoglycemic effect) / improving oral glucose tolerance (OGTT) / improving insulin resistance (ITT) / ALT and AST in serum (hepatoprotective function): 120 μg/kg s.c. daily; for improving oral glucose tolerance (OGTT): FIG. 4B, week 4; for improving insulin resistance (ITT): FIG. 4C, week 5; for ALT and AST in serum (hepatoprotective function): FIG. 4D; for H&E staining of kidneys: glomerular adhesion, ameliorative and therapeutic effects: FIG. 5B; for H&E staining of kidneys: glomerular adhesion, ameliorative and therapeutic effects / PAS staining of kidneys: ameliorative effects on glomerular mesangial region / collagen content (Sirius red, FN and α-SMA staining of kidneys): after 8 weeks; for H&E staining of kidneys: glomerular adhesion, ameliorative and therapeutic effects / collagen content (Sirius red, FN and α-SMA staining of kidneys): compared to semaglutide, SAR425899 and MED C18-acid groups; for PAS staining of kidneys: ameliorative effects on glomerular mesangial region: FIG. 5C; for collagen content (Sirius red, FN and α-SMA staining of kidneys): FIGS. 5D to 5F. How it is done: Normal mice born in the same litter; DC group: db/db mice control group). Blood glucose and body weight were measured on alternate days after daily administration of the medicament, and water intake and food intake were measured once a week. OGTT was measured at week 4, insulin tolerance (ITT) was measured at week 5, metabolism of mice was examined using mouse metabolic cages at weeks 6-7, and various serological and pathological indices were taken at week 8.
Type 2-diabetes mice were characterized by obesity, insulin resistance, hyperglycemia, dyslipidemia and hepatic fat vacuole-like degeneration.
After 6 weeks of medical treatment, the mice was collected for urine using metabolic cages, and the protein content in the urine was detected using relevant kits. After 7 weeks of medical treatment, the material was taken and blood was used to detect serological indicators such as blood creatinine and urea nitrogen.

The subject of assay [2] is FN protein (fibronectin). Description: Western blot of FN protein in high glucose-induced in vitro renal fibrosis cell model. The settings on record: 10 μM; 30 mmol/L glucose; 48 h; mesangial and renal epithelial cells. It counts as cell-based, rat. The text has this: Hyperglycemia and increased production of glycosylation end products will cause morphological changes such as proliferation and hypertrophy of glomerular mesangial cells, increase in extracellular matrix (ECM) and mesangial expansion, which will eventually lead to the loss of its physiological function. […] Therefore, this example used high glucose to induce MCS mesangial cells and NRK renal epithelial cells to construct an in vitro renal fibrosis cell model for screening medicaments useful for the treatment of diabetic nephropathy. The renal mesangial cell strain GMC and glomerular epithelial cells mTEC used in this example were both cells kept in the applicant's laboratory (both were extracted from rat renal primary cells) and cultured in low sugar medium containing 10% fetal bovine serum. The cells were starved with serum-free culture medium for 24 h when grew to 70% confluence. The cells were divided into the following 9 groups by adjusting the glucose concentration as follows: […]

Assay [3] concerns C57BL/6J mice. Description: Oral glucose tolerance (OGTT), repeated glucose loads followed to 24 h after one s.c. dose. The settings on record: 100 μg/kg subcutaneously; for long-acting hypoglycemic effects compared to semaglutide: four OGTT curves (0-22 h). The assay is classed as in vivo. How it is done:
Eight-week-old male C57BL/6J mice (Model Animal Research Center, Nanjing University) were randomly grouped according to similar blood glucose (assessed by blood samples obtained from the tail tip), with six mice in each group. […] The initial blood samples (fasted blood glucose levels) were obtained after about 4 h. Subsequently, an oral dose of glucose (2 g/kg) was administered and the animals were placed back in their holding cages (t=0). […] The oral dose of glucose was then repeated at 8 h of administration, 12 h of administration and […], and blood glucose changes were detected and followed until 24 hours. The data were processed using the software GraphPadPrism to make a line graph of blood glucose changes, and the area under the curve was calculated to obtain an AUC graph, and the results are shown in FIG. 1.

For assay [4], the system named is db/db diabetic mice. Put plainly: Dose determination in 8-week-old db/db diabetic mice: blood glucose and body weight. The assay is classed as in vivo. How it is done:
The db/db mice diabetic model (purchased from Nanjing University-Nanjing Institute of Biomedical Research, about 8 weeks, and blood glucose and body weight were measured to ensure the smooth subsequent experiments) was obtained, and the model mice were randomly divided into 12 groups (including polypeptide compounds 3, 8, 13, 15, semaglutide and physiological saline groups), with 6 mice in each group and no difference in basal body weight and blood glucose. Each group was injected subcutaneously with compound 3 (80 and 120 μg/kg, 2 groups), compound 8 (80 and 120 μg/kg, 2 groups), compound 13 (80 and 120 μg/kg, 2 groups), compound 15 (80 and 120 μg/kg, 2 groups), semaglutide (80 and 120 μg/kg, 2 groups) and physiological saline (DN group: normal mice born in the same litter; DC group: db/db mice control group) every day or every other day.
Blood glucose and body weight of mice were measured after daily administration and 6 h fasting on alternate days.

For “His-(D-Ser)-Gln-Gly-Thr-Phe-Thr-Ser-Asp-Leu-Ser-Lys-Gln-Lys(CO(CH2)14CH3)-Glu-Ser-Lys-Ala-Ala-Gln-Asp-Phe-Ile-Glu-Trp-Leu-Lys-Ala-Gly-Gly-Pro-Ser-Ser-Gly-Ala-Pro-Pro-Pro-Ser-NH2 (HXQGTFTSDLSKQKESKAAQDFIEWLKAGGPSSGAPPPS; D-Ser; palmitoyl lysine; C-terminal amide; SAR425899; (2)..(2) X=D-Ser; (14)..(14) A side chain of Lys is linked to -CO(CH2)14CH3) [compound reported in the prior art, synthesized by the applicant, reference compound]”, the “weekly blood glucose (hypoglycemic effect)” value (from here on “weekly blood glucose”) in assay [1] is recorded as “significant hypoglycemic effects”.
Take “His-(D-Ser)-Gln-Gly-Thr-Phe-Thr-Ser-Asp-Lys(Gly-Gly-Ser-Gly-Ser-Gly-γGlu-CO(CH2)18-COOH)-Ser-Lys-Tyr-Leu-Glu-Aib-Lys-Ala-Ala-Gln-Asp-Phe-Val-Glu-Trp-Leu-Lys-Ala-Gly-Gly-Pro-Ser-Ser-Gly-Ala-Pro-Pro-Pro-Ser-NH2 (HXQGTFTSDKSKYLEXKAAQDFVEWLKAGGPSSGAPPPS; D-Ser, Aib; γGlu-C20 diacid lipidation; C-terminal amide; (2)..(2) X=D-Ser; (10)..(10) A side chain of Lys is linked to -Gly-Gly-Ser-Gly-Ser-Gly-AGlu-CO(CH2)18-COOH; (16)..(16) X=Aib) [Compound 14]”: in assay [1], the “weekly blood glucose” value was “significant hypoglycemic effects”; the “improving oral glucose tolerance (OGTT)” value is listed as “performed more excellent”; the “improving insulin resistance (ITT)” value was “performed more excellent”; the “ALT and AST in serum (hepatoprotective function)” value is reported as “more excellent hepatoprotective functions”. Moreover, in assay [1], the “H&E staining of kidneys: glomerular adhesion, ameliorative and therapeutic effects” value is given as “more significant”; the “PAS staining of kidneys: ameliorative effects on glomerular mesangial region” value was “more significant”; the “collagen content (Sirius red, FN and α-SMA staining of kidneys)” value was “improved more significantly”. For the same substance, the “FN protein expression (Western blot)” value in assay [2] is “inhibited FN expression more significantly”. For the same substance, the “long-acting hypoglycemic effects compared to semaglutide” value in assay [3] is “superior and significant long-acting hypoglycemic effects”.
For “His-(D-Ser)-Gln-Gly-Thr-Phe-Thr-Ser-Asp-Lys(PEG2-PEG2-CO(CH2)18CO2H)-Ser-Lys-Tyr-Leu-Glu-Aib-Lys-Ala-Ala-Gln-Asp-Phe-Val-Glu-Trp-Leu-Lys-Ala-Gly-Gly-Pro-Ser-Ser-Gly-Ala-Pro-Pro-Pro-Ser-NH2 (H[dS]QGTFTSDK([PEG2′-PEG2′-C20 diacid])SKYLE[Aib]KAAQDFVEWLKAGGPSSGAPPPS-NH2) [Compound 2]”, the “long-acting hypoglycemic effects compared to semaglutide” value in assay [3] is “superior and significant long-acting hypoglycemic effects”.
As for “His-(D-Ser)-Gln-Gly-Thr-Phe-Thr-Ser-Asp-Tyr-Ser-Lys-Lys(PEG2-PEG2-γGlu-(CH2)17COOH)-Leu-Asp-Ser-Glu-Arg-Ala-Arg-Asp-Phe-Val-Ala-Trp-Leu-Val-Ala-Gly-Gly-NH2 (H[dS]QGTFTSDYSKKLDSERARDFVAWLVAGG-NH2; not fully specified (residue 13); printed as His-(D-Ser)-Gln-Gly-Thr-Phe-Thr-Ser-Asp-Tyr-Ser-Lys-Lys(PEG2-PEG2-γGlu-(CH2)17COOH)-Leu-Asp-Ser-Glu-Arg-Ala-Arg-Asp-Phe-Val-Ala-Trp-Leu-Val-Ala-Gly-Gly-NH2) [MED C18-acid, compound reported in the prior art, synthesized by the applicant, reference compound]”, the “weekly blood glucose” value in assay [1] was “significant hypoglycemic effects”.
Take “His-Aib-Gln-Gly-Thr-Phe-Thr-Ser-Asp-Lys(Gly-Gly-Ser-Gly-Ser-Gly-γGlu-CO(CH2)18-COOH)-Ser-Lys-Tyr-Leu-Asp-Glu-Arg-Ala-Ala-Gln-Asp-Phe-Iva-Gln-Trp-Leu-Leu-Asp-Gly-Gly-Pro-Ser-Ser-Gly-Aib-Pro-Pro-Pro-Ser-NH2 (HXQGTFTSDKSKYLDERAAQDFXQWLLDGGPSSGXPPPS; Aib, Iva; γGlu-C20 diacid lipidation; C-terminal amide; (2)..(2) X=Aib; (10)..(10) A side chain of Lys is linked to -Gly-Gly-Ser-Gly-Ser-Gly-AGlu-CO(CH2)18-COOH; (23)..(23) X=Isovaline; (35)..(35) X=Aib) [Compound 16]”: in assay [1], the “weekly blood glucose” value is listed as “significant hypoglycemic effects”; the “improving oral glucose tolerance (OGTT)” value was “performed more excellent”; the “improving insulin resistance (ITT)” value is “performed more excellent”; the “ALT and AST in serum (hepatoprotective function)” value was “more excellent hepatoprotective functions”. Besides, in assay [1], the “H&E staining of kidneys: glomerular adhesion, ameliorative and therapeutic effects” value is given as “more significant”; the “PAS staining of kidneys: ameliorative effects on glomerular mesangial region” value is “more significant”; the “collagen content (Sirius red, FN and α-SMA staining of kidneys)” value is “improved more significantly”.
For “His-Aib-Gln-Gly-Thr-Phe-Thr-Ser-Asp-Lys(PEG2-PEG2-γGlu-CO(CH2)18CO2H)-Ser-Lys-Tyr-Leu-Glu-Aib-Lys-Ala-Ala-Gln-Asp-Phe-Val-Glu-Trp-Leu-Lys-Ala-Gly-Gly-Pro-Ser-Ser-Gly-Ala-Pro-Pro-Pro-Ser-NH2 (H[Aib]QGTFTSDK([PEG2′-PEG2′-γGlu-C20 diacid])SKYLE[Aib]KAAQDFVEWLKAGGPSSGAPPPS-NH2) [Compound 1]”, the “long-acting hypoglycemic effects compared to semaglutide” value in assay [3] was “superior and significant long-acting hypoglycemic effects”.
In the case of Semaglutide [reference compound], in assay [4] (FIG. 3A, daily s.c., 120 μg/kg, vs saline DC group), the “blood glucose (glucose-lowering effect)” value is “better hypoglycemic effect, after which it was maintained at a more stable normoglycemic level, but its hypoglycemic effect was not significant”. Further, the “blood glucose (hypoglycemic effect)” value is “the hypoglycemic effect was not significant” in assay [4] (FIG. 3B, every other day s.c., 80 μg/kg) and “the hypoglycemic effect was not significant” in assay [4] (FIG. 3B, every other day s.c., 120 μg/kg). Besides, the “subsequent blood glucose course (long-lasting effect)” value in assay [4] (FIG. 3B, every other day s.c., 120 μg/kg, from day 3 / after days 3-5) was “rebounded on day 3, and its long-lasting effect was not enough”. Besides, the “weekly blood glucose” value in assay [1] is listed as “significant hypoglycemic effects”. Besides, the “AUC / improvement in glucose tolerance in all four OGTT curves” value in assay [3] (four OGTT curve periods (0-22 h), compared to control PBS) was “significantly reduced (P<0.05)”.
